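Five concentrations, 48 hours, 96-well plates. GI50 = concentration required for 50% inhibition of growth.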 The source made the active and inactive calls. Cut-off read from the data, not from the text of the source: active = GI50 up to about 1.1 µM and inactive = higher.

Some test systems named below: CAKI-1; CCRF-CEM; DU-145; HCC 2998; HCT-15; MDA-MB-231; MOLT-4; NCI-H460; NCI/ADR-RES; OVCAR-3; OVCAR-4; RPMI-8226; SK-MEL-5; SR; TK-10; UACC-62; HCT-116; Hs-578T; NCI-H522; BT-549.
What all share (assay): NCI-60 cell line screen, 48 h

In the case of `CCOC(=O)c1csc(NC(=O)CN2CCN(c3ccccc3)CC2)n1`, the GI50 is > 100 µM (inactive) in the experiment with CAKI-1; > 100 µM (inactive) with CCRF-CEM; > 100 µM (inactive) in the experiment on DU-145; > 100 µM (inactive) with HCC 2998; over 100 µM in the experiment with HCT-15; > 100 µM (inactive) with MDA-MB-231. The GI50 with MOLT-4 is 45.6 µM (inactive); in the experiment on NCI-H460 it was > 100 µM (inactive); with NCI/ADR-RES, > 100 µM (inactive); in the experiment with OVCAR-3, > 100 µM (inactive); in the experiment on OVCAR-4, 99.1 µM (inactive); in the experiment on RPMI-8226, > 100 µM (inactive). In addition, the GI50 in the experiment with SK-MEL-5 is 34.8 µM (inactive); in the experiment on SR it was > 100 µM (inactive); with TK-10, > 100 µM (inactive); in the experiment with UACC-62 it was > 100 µM (inactive).

Turning to `CC(O[Si](c1ccccc1)(c1ccccc1)C(C)(C)C)[C@H](NC(=O)OC(C)(C)C)C(=O)O` (stereo not given in full), the GI50 in the experiment with CAKI-1 is 40.3 µM (inactive); in the experiment with CCRF-CEM, 10.2 µM (inactive); in the experiment on DU-145 it was > 10 µM (inactive); in the experiment on HCC 2998, 36.2 µM (inactive); in the experiment on HCT-116, 34.2 µM (inactive); in the experiment on HCT-15 it was 29 µM. The GI50 was 57.1 µM (inactive) in the experiment on Hs-578T; 18.1 µM (inactive) in the experiment with MOLT-4; 55.6 µM (inactive) with NCI-H460; 46.7 µM (inactive) in the experiment with NCI/ADR-RES; 26.4 µM (inactive) with OVCAR-4; 35.6 µM (inactive) in the experiment on RPMI-8226. Moreover, the GI50 was 21.6 µM (inactive) in the experiment with SK-MEL-5, 28.2 µM (inactive) in the experiment on SR and 45 µM (inactive) with TK-10.

Take `O=C(NC(C(F)(F)F)(C(F)(F)F)P(=O)(Cc1ccccc1)Cc1ccccc1)C(C(F)(F)F)C(F)(F)F`: the GI50 in the experiment on CAKI-1 is 52.4 µM (inactive); with CCRF-CEM, 29.6 µM (inactive); in the experiment with DU-145 it was 37.8 µM (inactive); in the experiment on HCC 2998 it was 27.5 µM (inactive); in the experiment with HCT-116 it was 17.3 µM (inactive); in the experiment on HCT-15, 29.4 µM. In addition, the GI50 in the experiment with Hs-578T was 55.7 µM (inactive); in the experiment on MDA-MB-231, 19.8 µM (inactive); in the experiment with MOLT-4, 16.9 µM (inactive); with NCI-H460, 27.7 µM (inactive); with NCI-H522, 26.2 µM (inactive); in the experiment on NCI/ADR-RES, 17.9 µM (inactive). In addition, the GI50 in the experiment with OVCAR-3 was 31.6 µM (inactive); in the experiment on RPMI-8226, 25.2 µM (inactive); in the experiment with SK-MEL-5, 15.4 µM (inactive); with SR it was 18.7 µM (inactive); in the experiment on TK-10, 21.8 µM (inactive); in the experiment with UACC-62, 27.2 µM (inactive).

For `Nn1c(S)nnc1C12CC3CC(CC(C3)C1)C2`, the GI50 with CAKI-1 is > 100 µM (inactive); in the experiment on CCRF-CEM, > 100 µM (inactive); with DU-145, > 100 µM (inactive); with HCC 2998, > 100 µM (inactive); with HCT-116, > 100 µM (inactive); in the experiment with HCT-15, over 100 µM. Moreover, the GI50 in the experiment with Hs-578T, with MDA-MB-231, in the experiment on MOLT-4, in the experiment on NCI-H460, in the experiment with NCI-H522 and with NCI/ADR-RES was > 100 µM (inactive) in each case. In addition, the GI50 with OVCAR-3, with OVCAR-4, in the experiment with RPMI-8226, in the experiment on SK-MEL-5, with SR and with TK-10 was > 100 µM (inactive) in each case. Also, the GI50 in the experiment on UACC-62 was > 100 µM (inactive).

With `COc1ccc2nc3c([N+](=O)[O-])ccc(NCCCN(C)C)c3c(N)c2c1`, the GI50 in the experiment on CAKI-1 was 1.81 µM (inactive); in the experiment on CCRF-CEM, 0.245 µM (active); with DU-145 it was 1.67 µM (inactive); in the experiment on HCT-116, 0.316 µM (active); in the experiment on HCT-15, 1.3 µM; in the experiment with Hs-578T it was 2.78 µM (inactive). The GI50 in the experiment with MDA-MB-231 is 1.28 µM (inactive); with MOLT-4, 0.276 µM (active); in the experiment with NCI-H460 it was 1.21 µM (inactive); in the experiment with NCI-H522, 0.474 µM (active); with NCI/ADR-RES, 1.64 µM (inactive); in the experiment on OVCAR-3 it was 1.49 µM (inactive). The GI50 is 1.5 µM (inactive) in the experiment with OVCAR-4; 1.15 µM (inactive) in the experiment on RPMI-8226; 1.87 µM (inactive) in the experiment with SK-MEL-5; 0.721 µM (active) in the experiment on SR; 1.62 µM (inactive) with TK-10; 1.82 µM (inactive) in the experiment on UACC-62.

Turning to `Nc1n[nH]c(Nc2ccc(Cl)cc2)c1P(=O)(c1ccccc1)c1ccccc1`, the GI50 was 44.8 µM (inactive) with CAKI-1; 28.6 µM (inactive) with CCRF-CEM; 37.7 µM (inactive) with DU-145; 24.7 µM (inactive) in the experiment on HCC 2998; 28.6 µM in the experiment on HCT-15; 14.8 µM (inactive) in the experiment with Hs-578T. Also, the GI50 with MDA-MB-231 is 19.1 µM (inactive); in the experiment on MOLT-4, 27.2 µM (inactive); in the experiment on NCI-H460 it was 21.3 µM (inactive); with NCI-H522, 20.2 µM (inactive); with NCI/ADR-RES, 20.7 µM (inactive); with OVCAR-3 it was 18.1 µM (inactive). The GI50 in the experiment with OVCAR-4 is 22 µM (inactive); with RPMI-8226, 39.5 µM (inactive); in the experiment on SK-MEL-5 it was 20.9 µM (inactive); with SR it was 53.1 µM (inactive); in the experiment on TK-10, 30.1 µM (inactive); with UACC-62 it was 22.2 µM (inactive).

On to `N#CC(c1nc2ccccc2s1)c1nc(Cl)ncc1Br` (stereo not given), for which the GI50 is 25.2 µM (inactive) in the experiment with BT-549; 33.4 µM (inactive) in the experiment on CAKI-1; 45.7 µM (inactive) in the experiment with DU-145; 23 µM (inactive) in the experiment with HCT-116; 29.1 µM with HCT-15; 39.2 µM (inactive) with MDA-MB-231. The GI50 in the experiment on MOLT-4 is 72.4 µM (inactive); in the experiment with NCI-H460, 46 µM (inactive); in the experiment on NCI-H522, 20.7 µM (inactive); in the experiment with NCI/ADR-RES, 30 µM (inactive); in the experiment with OVCAR-3, 27.2 µM (inactive); in the experiment with OVCAR-4, 47.8 µM (inactive). Besides, the GI50 with RPMI-8226 was 25.4 µM (inactive); in the experiment with SK-MEL-5, 19 µM (inactive); in the experiment with TK-10, 37.3 µM (inactive).

Regarding `O=C(CCN1CCCCC1)C(=Cc1ccccc1)C(=O)CCN1CCCCC1`, the GI50 with CAKI-1 was 2.45 µM (inactive); with CCRF-CEM, 17.2 µM (inactive); in the experiment with HCC 2998 it was > 100 µM (inactive); with HCT-116 it was 42.3 µM (inactive); with HCT-15, 64.9 µM; with MOLT-4, 18.6 µM (inactive). For the same compound, the GI50 is > 100 µM (inactive) with NCI-H460; 1.23 µM (inactive) with NCI-H522; 74.5 µM (inactive) with NCI/ADR-RES; 3.74 µM (inactive) with OVCAR-3; > 100 µM (inactive) with OVCAR-4; 20.8 µM (inactive) in the experiment on RPMI-8226. Besides, the GI50 in the experiment with SK-MEL-5 was > 100 µM (inactive); with SR, 4.36 µM (inactive); with UACC-62, 31.4 µM (inactive).

For `CN(C)CCNC(=O)c1cccc2c(=O)c3ccccc3oc12`, the GI50 in the experiment with CCRF-CEM is 35.4 µM (inactive); in the experiment on HCC 2998, 60 µM (inactive); in the experiment with HCT-116, 13.7 µM (inactive); in the experiment on HCT-15, 37.4 µM; with MOLT-4 it was 41.3 µM (inactive); in the experiment on NCI-H460, 28.2 µM (inactive). Also, the GI50 in the experiment with NCI/ADR-RES is 27.6 µM (inactive); in the experiment on OVCAR-3 it was 37.8 µM (inactive); in the experiment on OVCAR-4, 34.5 µM (inactive); in the experiment on RPMI-8226 it was 29.2 µM (inactive); in the experiment on SK-MEL-5, 25.2 µM (inactive); in the experiment on UACC-62, 32.2 µM (inactive).

Take `Cn1ccnc1C(c1nccn1C)C(C)(C)[N+](=O)[O-]`: the GI50 was > 100 µM (inactive) in the experiment on CAKI-1; > 100 µM (inactive) in the experiment with CCRF-CEM; > 100 µM (inactive) in the experiment on HCC 2998; > 100 µM (inactive) in the experiment with HCT-116; over 100 µM in the experiment with HCT-15; > 100 µM (inactive) in the experiment with MOLT-4. The GI50 in the experiment on NCI-H460, with NCI-H522, with OVCAR-3, in the experiment with OVCAR-4, in the experiment on RPMI-8226 and in the experiment on SK-MEL-5 was > 100 µM (inactive) throughout. Further, the figures for the GI50 in the experiment with SR, with TK-10 and in the experiment with UACC-62 were > 100 µM (inactive), > 100 µM (inactive) and 12.4 µM (inactive), respectively.

For `CCOC(=O)CC(NC(=O)c1nc[nH]c1/N=N/N(C)C)C(=O)OCC` (stereo not given), the GI50 in the experiment with CAKI-1 is > 100 µM (inactive); with CCRF-CEM it was > 100 µM (inactive); with HCC 2998 it was > 100 µM (inactive); in the experiment on HCT-116 it was > 100 µM (inactive); in the experiment on HCT-15, over 100 µM; in the experiment on MOLT-4, > 100 µM (inactive). For the same compound, the GI50 with NCI-H460, with NCI-H522, in the experiment on OVCAR-3, in the experiment with OVCAR-4, with RPMI-8226 and in the experiment with SK-MEL-5 was > 100 µM (inactive) throughout. The GI50 in the experiment with SR, in the experiment on TK-10 and with UACC-62 was > 100 µM (inactive) each time.

For the compound `c1ccc2c(CCNC3=NCCO3)cccc2c1`, the GI50 in the experiment on CAKI-1 is > 10 µM (inactive); in the experiment on CCRF-CEM, > 10 µM (inactive); in the experiment on DU-145, > 10 µM (inactive); with HCC 2998, > 10 µM (inactive); in the experiment on HCT-116, > 10 µM (inactive); with HCT-15, over 10 µM. Also, the GI50 in the experiment with Hs-578T, with MDA-MB-231, with MOLT-4, with NCI-H460, in the experiment with NCI-H522 and with NCI/ADR-RES was > 10 µM (inactive) throughout. Further, the GI50 in the experiment on OVCAR-3, in the experiment with OVCAR-4, in the experiment on RPMI-8226, in the experiment with SK-MEL-5, in the experiment on SR and in the experiment with TK-10 was > 10 µM (inactive) each time. The GI50 in the experiment on UACC-62 is > 10 µM (inactive).

The record behind these values is ChEMBL document CHEMBL1201862, “PubChem BioAssay data set” (2004).
